Measured values from patent US10251394B2, “Molecules having pesticidal utility, and intermediates, compositions, and processes, related thereto” (Dow AgroSciences LLC, priority 2016, dated 2019).

Assays:
Assay type in all cases: in vivo
[1] = tested on: Yellow Fever Mosquito (Aedes aegypti); assay: Bioassay on Yellow Fever Mosquito (YFM) larvae, 96-well plate; settings: Table ABC
Outline: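 About 1-day-old larvae in water with liver powder were added to wells holding compound from a 4000 ppm DMSO master diluted in 90:10 water:acetone. Plates covered and kept at room temperature for 3 days, then each well scored for mortality on a rating scale.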

[2] = tested on: Beet Armyworm (Spodoptera exigua); assay: Bioassay on Beet Armyworm (BAW), 128-well diet tray assay; settings: Beet Armyworm, Table ABC, read-out: BAW rating
Outline: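 Second-instar larvae (one to five per well) placed on artificial diet surface-treated with 50 μg/cm^2 test molecule in 90:10 acetone-water, dried, eight wells per molecule. Held at 25° C, 14:10 light-dark, five to seven days; percent mortality recorded per well and averaged across the eight wells.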

[3] = tested on: Cabbage Looper (Trichoplusia ni); assay: Bioassay on Cabbage Looper (CL), 128-well diet tray assay; settings: Cabbage Looper, Table ABC, read-out: CL rating
Outline: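 Second-instar larvae, one to five per well, placed on artificial diet surface-treated with 50 μg/cm^2 compound in acetone-water, eight wells per compound. Held 5-7 days at 25° C, 14:10 light-dark; percent mortality per well averaged across wells.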

[4] = tested on: Green Peach Aphid (Myzus persicae); assay: Bioassay on Green Peach Aphid (GPA), foliar spray on cabbage seedlings; settings: 72 h, Table ABC, read-out: GPA rating
Procedure: Example B: Bioassays on Green Peach Aphid (Myzus Persicae, MYZUPE) (“GPA”) Certain molecules disclosed in this document were tested against GPA using procedures described in the following example. In the reporting of the results, the “GPA & YFM Rating Table” was used (See Table Section). Cabbage seedlings grown in 3-inch pots, with 2-3 small (3-5 cm) true leaves, were used as test substrate. The seedlings were infested with 20-50 GPA (wingless adult and nymph stages) one day prior to chemical application. Four pots with individual seedlings were used for each treatment. Test molecules (2 mg) were dissolved in 2 mL of acetone/methanol (1:1) solvent, forming stock solutions of 1000 ppm test molecule. The stock solutions were diluted 5× with 0.025% Tween 20 in water to obtain the solution at 200 ppm test molecule. A hand-held aspirator-type sprayer was used for spraying a solution to both sides of […] leaves until runoff. Reference plants (solvent check) were sprayed with the diluent only containing 20% by volume of acetone/methanol (1:1) solvent. Treated plants were held in a holding room for three days at approximately 25° C. and ambient relative humidity (RH) prior to grading. Evaluation was conducted by counting the number of live aphids per plant under a microscope. Percent Control was measured by using Abbott's correction formula (W. S. Abbott, “A Method of Computing the Effectiveness of an Insecticide” J. Econ. Entomol. 18 (1925), pp. 265-267) as follows. Corrected % Control=100*(X−Y)/X • where • X=No. of live aphids on solvent check plants and • Y=No. of live aphids on treated plants The results are indicated in the table entitled “Table ABC: Biological Results” (See Table Section).

Row | SMILES | YFM rating [1] | pest or weed control at 50 µg/cm2 [2] | pest or weed control at 50 µg/cm2 [3] | pest or weed control at 200 µg/mL [4]
1 | CN(CC(F)(F)F)C(=O)CNC(=O)c1ccc(/C(F)=C/C(c2ccc(F)c(Cl)c2)C(F)(F)F)cc1C(F)(F)F (stereo not shown) [PF6, (Z)-4-(3-(3-Chloro-4-fluorophenyl)-1,4,4,4-tetrafluorobut-1-en-1-yl)-N-(2-(methyl(2,2,2-trifluoroethyl)amino]-2-oxoethyl)-2-(trifluoromethyl)benzamide] | A (80-100) | 50 to 100% | 50 to 100% | 80 to 100%
2 | Cc1cc(C(/C=C(\F)c2ccc(C(=O)NC3(C(=O)N(C)CC(F)(F)F)CC3)c(C(F)(F)F)c2)C(F)(F)F)cc(Cl)c1Cl (stereo not shown) [PF16, (Z)-4-(3-(3,4-Dichloro-5-methylphenyl)-1,4,4,4-tetrafluorobut-1-en-1-yl)-N-(1-(methyl(2,2,2-trifluoroethyl)carbamoyl)cyclopropyl)-2-(trifluoromethyl)benzamide] | A (80-100) | 50 to 100% | 50 to 100% | 0 to 80%
3 | CN(CC(F)(F)F)C(=O)CNC(=O)c1ccc(/C(F)=C/C(c2ccc(Br)c(Cl)c2)C(F)(F)F)cc1C(F)(F)F (stereo not shown) [PF24, (Z)-4-(3-(4-Bromo-3-chlorophenyl)-1,4,4,4-tetrafluorobut-1-en-1-yl)-N-(2-(methyl(2,2,2-trifluoroethyl)amino)-2-oxoethyl)-2-(trifluoromethyl)benzamide] | A (80-100) | 50 to 100% | 50 to 100% | 80 to 100%
4 | O=C(NC1(C(=O)NCC(F)(F)F)CC1)c1ccc(/C(F)=C/C(c2ccc(Br)c(Cl)c2)C(F)(F)F)cc1C(F)(F)F (stereo not shown) [PF27] | B (More than 0-Less than 80) | 50 to 100% | 50 to 100% | 80 to 100%
